# ChEMBL document CHEMBL1142409, “Synthetic ligands that activate and inhibit a quorum-sensing regulator in Pseudomonas aeruginosa” (Bioorg Med Chem Lett, 2008)
# Key:
# (Pseudomonas aeruginosa) = target: T1, (Pseudomonas aeruginosa) (UniProt Q9RMS5); assay: Agonist activity at Pseudomonas aeruginosa QscR expressed in Escherichia coli assessed as production of beta-galactosidase at 5 uM relative to dodecanoyl homoserine lactone; type: functional
# T1 sequence (whole entry): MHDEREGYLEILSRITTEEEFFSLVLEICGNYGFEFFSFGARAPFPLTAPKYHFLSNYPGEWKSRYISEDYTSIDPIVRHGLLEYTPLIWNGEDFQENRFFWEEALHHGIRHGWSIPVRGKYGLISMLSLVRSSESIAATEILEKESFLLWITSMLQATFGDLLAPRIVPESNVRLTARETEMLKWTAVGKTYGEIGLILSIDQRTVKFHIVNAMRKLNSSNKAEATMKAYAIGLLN
# [1] = target: T2, PhzR (Pseudomonas aeruginosa) (UniProt Q9RMS5); assay: Antagonist activity at Pseudomonas aeruginosa QscR expressed in Escherichia coli assessed as inhibition of dodecanoyl homoserine lactone induced production of beta-galactosidase at 5 uM; type: functional
# T2 sequence (whole entry): T1 sequence (whole entry)
# [2] = target: T3, Transcriptional activator protein LasR (Pseudomonas aeruginosa (strain ATCC 15692 / PAO1 / 1C / PRS 101 / LMG12228)) (UniProt P25084); assay: Inhibition of Pseudomonas aeruginosa LasR; parameters: concentration or dose not given beside the values; conditions: concentration not given here
# T3 sequence (whole entry): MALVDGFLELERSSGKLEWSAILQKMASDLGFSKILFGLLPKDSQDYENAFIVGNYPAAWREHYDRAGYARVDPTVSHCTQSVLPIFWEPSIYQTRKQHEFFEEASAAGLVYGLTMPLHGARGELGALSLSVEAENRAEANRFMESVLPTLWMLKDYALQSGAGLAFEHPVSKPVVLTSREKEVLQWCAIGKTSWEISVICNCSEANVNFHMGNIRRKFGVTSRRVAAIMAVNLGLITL
# [3] = target: T2, PhzR (Pseudomonas aeruginosa); assay: Inhibition of binding of Pseudomonas aeruginosa QscR to DNA at 200 uM in presence of 3-oxo-dodecanoyl -L-homoserine lactone by electromobility shift assay
# [4] = target: QscR (Pseudomonas aeruginosa); assay: Antagonist activity at Pseudomonas aeruginosa QscR expressed in Escherichia coli assessed as inhibition of dodecanoyl homoserine lactone induced production of beta-galactosidase
structure (smiles),measurement,setting,value
O=C(CC(=O)N[C@@H]1CCOC1=O)Cc1ccccc1,Activity,(Pseudomonas aeruginosa),59%
O=C(Cc1cccc([N+](=O)[O-])c1)N[C@H]1CCOC1=O,inhibition,[1],71%
same,inhibition,[2],50%
O=C(CCc1ccc(Br)cc1)N[C@H]1CCOC1=O,Activity,(Pseudomonas aeruginosa),64%
same,inhibition,[2],> 50%
CCCCCCCCCCCS(=O)(=O)N[C@H]1CCOC1=O,Activity,(Pseudomonas aeruginosa),51%
CCCc1ccc(C(=O)CCC(=O)N[C@H]2CCOC2=O)cc1,Activity,(Pseudomonas aeruginosa),54%
CCCCCCCCCCCC(=O)CC(=O)N[C@H]1CCOC1=O,Activity,(Pseudomonas aeruginosa),78%
CCOc1ccc(CC(=O)N[C@H]2CCOC2=O)cc1,inhibition,[1],75%
same,inhibition,[3],82%
same,IC50,[4],160 nM
CCCCCCCCCC(=O)CC(=O)N[C@H]1CCOC1=O,Activity,(Pseudomonas aeruginosa),109%
O=C(Cc1ccc(-c2ccccc2)cc1)N[C@H]1CCOC1=O,inhibition,[1],88%
same,inhibition,[3],100%
same,inhibition,[2],20%
same,IC50,[4],30 nM
O=C(Cc1cccc(I)c1)N[C@H]1CCOC1=O,inhibition,[1],70%
same,inhibition,[2],50%
O=C(Cc1cccc(Cl)c1)N[C@H]1CCOC1=O,inhibition,[1],73%
same,inhibition,[2],50%
CC(C)(C)OC(=O)NCc1ccc(C(=O)N[C@H]2CCOC2=O)cc1,inhibition,[1],77%
same,inhibition,[3],59%
same,IC50,[4],200 nM
O=C(N[C@H]1CCOC1=O)c1ccc(Br)cc1,inhibition,[1],78%
same,inhibition,[3],71%
same,IC50,[4],180 nM
CCCCCC(=O)CC(=O)N[C@H]1CCOC1=O,Activity,(Pseudomonas aeruginosa),74%
same,inhibition,[2],> 50%
O=C(Cc1cccc(Br)c1)N[C@H]1CCOC1=O,inhibition,[1],71%
same,inhibition,[2],50%
CCCCCCCC(=O)N[C@H]1CCOC1=O,Activity,(Pseudomonas aeruginosa),59%
same,inhibition,[2],> 50%
CCCCCCCCCC(=O)N[C@H]1CCOC1=O,Activity,(Pseudomonas aeruginosa),104%
CCCCCCCCc1ccc(C(=O)N[C@H]2CCOC2=O)cc1,inhibition,[1],76%
same,inhibition,[3],100%
CC(C)(C)OC(=O)Nc1ccc(CC(=O)N[C@H]2CCOC2=O)cc1,Activity,(Pseudomonas aeruginosa),61%
